The test system of assay [1] is NIH-3T3 cells. The assay can be described thus: qHTS cell viability (CellTiter-Glo, 72 h; primary screen), control cell line. The assay is classed as cell-based, mouse. On the technique in general: qHTS replaces the single test concentration by a dilution series.
The subject of assay [2] is MCC26 cells (VN-MCC). Description: qHTS cell viability (CellTiter-Glo, 72 h; primary and follow-up small molecule screen). The assay is classed as cell-based, human.
The subject of assay [3] is WAGA cells (VP-MCC). The assay is described as above. The assay is classed as cell-based, human.
The subject of assay [4] is MKL-1 cells (VP-MCC). Described as above. It is filed as cell-based, human.
The subject of assay [5] is MCC13 cells (VN-MCC). Described as above. It is filed as cell-based, human.
Assay [6] relates to CRL-7250 cells. Description: qHTS cell viability (CellTiter-Glo, 72 h; primary screen), control cell line. The assay is classed as cell-based.
Assay [7] deals with UISO cells (VN-MCC). Description: qHTS cell viability (CellTiter-Glo, 72 h; primary and follow-up small molecule screen). It is filed as cell-based, human.
Assay [8] concerns HEK293T cells. Description: qHTS cell viability (CellTiter-Glo, 72 h; primary screen), control cell line. It is filed as cell-based, human.
Assay [9] relates to HACAT cells. The description is as above. It is filed as cell-based, human.
The subject of assay [10] is MKL-2 cells (VP-MCC). The assay can be described thus: qHTS cell viability (CellTiter-Glo, 72 h; primary and follow-up small molecule screen). The assay is classed as cell-based, human.
Where [11] appears, read: area under the dose-response curve, NIH3T3 control cells, AUC<450 = reduced viability.
Setting [12] is: area under the dose-response curve, MCC26 cells, AUC<450 = reduced viability.
Setting [13] is: area under the dose-response curve, WAGA cells, AUC<450 = reduced viability.
Setting [14] is: area under the dose-response curve, MCC13 cells, AUC<450 = reduced viability.
Where [15] appears, read: area under the dose-response curve, CRL7250 control cells, AUC<450 = reduced viability.
The mark [16] stands for this setting: area under the dose-response curve, UISO cells, AUC<450 = reduced viability.
Where [17] appears, read: area under the dose-response curve, HEK293T control cells, AUC<450 = reduced viability.
[18] abbreviates: area under the dose-response curve, HACAT control cells, AUC<450 = reduced viability.
[19] abbreviates: area under the dose-response curve, MKL-2 cells, AUC<450 = reduced viability.
Where [20] appears, read: area under the dose-response curve, MKL-1 cells, AUC<450 = reduced viability.
[21] abbreviates: primary high-throughput screen, viability 72 h, n = 1.

Structures can show the parent of a compound that is named as a salt. Where two headings read alike, the source gives them in different places.

`Cc1nc2c([nH]1)c(=O)n(C)c(=O)n2Cc1ccco1` [Furafylline] showed an NIH3T3_AUC in [1] (setting [11]) of 485.732. The compound further displayed an MCC26_AUC in assay [2] (setting [12]) of 399.611. The compound also had a WAGA_AUC in assay [3] (setting [13]) of 445.554. In addition, the MKL1_AUC in assay [4] ({}) is 414.343. The MCC13_AUC in [5] (setting [14]) is given as 444.774. For the same compound, the CRL7250_AUC in [6] (setting [15]) is on record as 466.658. The compound also showed a UISO_AUC in [7] (setting [16]) of 447.137. Also, the HEK293T_AUC in assay [8] (setting [17]) was 497.799. In [9] (setting [18]), the HACAT_AUC came to 476.414. In addition, the MKL2_AUC in assay [10] (setting [19]) turned out to be 443.745.

As for `CS(=O)(=O)Oc1ccc2c(NC(N)=O)c(C(=O)c3ccc(Cl)cc3Cl)oc2c1` [Lirimilast], in [1], the NIH3T3_AUC turned out to be 472.494. The compound also returned an MCC26_AUC in assay [2] of 450.578. Further, the WAGA_AUC in assay [3] is 295.464. Further, the MKL1_AUC in assay [4] is given as 416.805. This compound also showed an MCC13_AUC in assay [5] of 475.91. This compound also showed a CRL7250_AUC in assay [6] of 477.656. Besides, the UISO_AUC in [7] is 491.115. The compound also showed an HEK293T_AUC in assay [8] of 473.552. The compound further showed an HACAT_AUC in [9] of 475.167. In addition, the MKL2_AUC in assay [10] came to 353.495.

Consider `CCOc1cc(N)c(Cl)cc1C(=O)NCC1CN(Cc2ccc(F)cc2)CCO1` (stereo not drawn) [Mosapride citrate], for which the NIH3T3_AUC in assay [1] (setting [11]) was found to be 470.089. Also, the MCC26_AUC in assay [2] (setting [12]) was found to be 466.055. Besides, the WAGA_AUC in assay [3] (setting [13]) is given as 443.892. For the same compound, the MKL1_AUC in [4] (setting [20]) came out at 438.77. This compound showed an MCC13_AUC in assay [5] (setting [14]) of 479.818. The compound also registered a CRL7250_AUC in [6] (setting [15]) of 480.736. The compound further displayed a UISO_AUC in assay [7] (setting [16]) of 489.758. In addition, the HEK293T_AUC in assay [8] (setting [17]) came out at 457.079. Further, in [9] (setting [18]), the HACAT_AUC came to 473.779. This compound had an MKL2_AUC in assay [10] (setting [19]) of 377.067.

For `c1cc(-c2sc(-c3ccncc3)c(-c3ccncc3)c2-c2ccncc2)ccn1` [NSC-75503, reference compound], the “Area under the dose-response curve (AUC) NIH3T3” value in [1] (setting [21]) was determined as 481.5. Also, the “Area under the dose-response curve (AUC) MCC26” value in assay [2] (setting [21]) is on record as 468.9. Besides, in assay [3] (setting [21]), the “Area under the dose-response curve (AUC) WAGA” value came to 489.4. The “Area under the dose-response curve (AUC) MKL-1” value in assay [4] (setting [21]) was determined as 478.1. In addition, the “Area under the dose-response curve (AUC) MCC13” value in assay [5] (setting [21]) is reported as 492.9. The “Area under the dose-response curve (AUC) CRL7250” value in assay [6] (setting [21]) stood at 461.0. Moreover, the “Area under the dose-response curve (AUC) UISO” value in [7] (setting [21]) amounted to 456.0. In assay [8] (setting [21]), the “Area under the dose-response curve (AUC) HEK293T” value amounted to 450.5. Also, in assay [9] (setting [21]), the “Area under the dose-response curve (AUC) HACAT” value is given as 453.3. The “Area under the dose-response curve (AUC) MKL-2” value in [10] (setting [21]) turned out to be 550.2.

`Cc1ncc(CNC(=O)N(CCCl)N=O)c(N)n1` [Nimustine] gave an NIH3T3_AUC in assay [1] of 486.849. Also, the MCC26_AUC in [2] stood at 438.698. In assay [3], this compound came in with a WAGA_AUC of 465.895. The compound also yielded an MKL1_AUC in assay [4] of 478.611. Also, the MCC13_AUC in [5] is on record as 434.577. In [6], the CRL7250_AUC is recorded as 491.102. Further, the UISO_AUC in assay [7] came to 443.983. In [8], this compound displayed an HEK293T_AUC of 481.182. Also, in assay [9], the HACAT_AUC came out at 461.645. The compound further showed an MKL2_AUC in assay [10] of 504.085.

As to `C[N+]1(CC2COC(c3ccccc3)(C3CCCCC3)O2)CCCCC1` (stereo not drawn) [Oxapium iodide], the NIH3T3_AUC in assay [1] (setting [11]) is 474.75. Also, the MCC26_AUC in assay [2] (setting [12]) is given as 482.458. In assay [3] (setting [13]), this compound had a WAGA_AUC of 422.785. This compound also gave an MKL1_AUC in assay [4] (setting [20]) of 436.858. Moreover, the MCC13_AUC in assay [5] (setting [14]) was 501.634. In assay [6] (setting [15]), this compound gave a CRL7250_AUC of 483.841. Besides, the UISO_AUC in assay [7] (setting [16]) is 505.529. For the same compound, in assay [8] (setting [17]), the HEK293T_AUC is 460.835. The compound further returned an HACAT_AUC in [9] (setting [18]) of 474.271. The MKL2_AUC in [10] (setting [19]) came to 426.411.

For the origin of these results see paper PMC11822212, “High-throughput screening identifies Aurora kinase B as a critical therapeutic target for Merkel cell carcinoma” (Nature Communications, 2025).
